What was measured:
[1] = MRI analysis of major blood vessels of the brain; assay type: in vivo, C57/B16 mice; conditions: mice, 1.2 μmol i.v.
Method: All animal experiments were carried out in strict adherence to the Swiss law for animal protection. MR measurements were performed on a Bruker PharmaScan 47/16 MR system (Bruker BioSpin GmbH) operating at 200 MHz using a circular cryogenic surface coil for signal transmission and reception. Mice were anesthetized with 1.4-1.5% isoflurane in air:O2 (4:1). Scout scans were performed to asses the anatomy of the animal. The shortening effect of both contrast agents DTPA-Gd and 428-D-Lys-β-Ala-DTPA-Gd on the longitudinal blood relaxation time (T1) was investigated in two C57/B16 mice. For this purpose, transverse cine 2D images were acquired using the following sequence parameters: field of view (FOV): 19×19×0.5 mm3, matrix size: 128×128, flip angle: 15°, TE/TR: 3.0/14 ms, averages: 6, repetitions: 50, temporal resolution: 10.75 s, total scan time: 8 min 57 s. The inflowing blood was saturated by exciting a 4 mm thick slice (flip angle15°) cranial to the imaging plane. Contrast agents were injected into the tail vein after a baseline of twenty repetitions. Firstly, a dose of 1.2 μmol of DTPA-Gd and secondly, after a wait time of 30 min, a dose of 1.2 μmol of 428-D-Lys-β-Ala-DTPA-Gd was administered. The time course of the MR signal was analyzed in a large vessel and normalized to the baseline value for comparison.

albumin = albumin (Homo sapiens, UniProt P02768); conditions: background statement; cited from earlier work
[2] = high doses, bolus injection; depending on the patient group; cited from earlier work
HSA = HSA (Homo sapiens, UniProt P02768); assay: Fluorescence polarisation with increasing amounts of HSA; assay type: binding; conditions: 100 nM compound, PBS, 1 h at 25° C., read-out: dissociation constant
Method: 100 nM of 428-D-Lys-FAM, 622-D-Lys-FAM and, for comparison, of fluorescein and of phenethylamine-FAM were incubated with increasing amounts of HSA in PBS for 1 h at 25° C. The fluorescence polarization was determined by excitation at 485 nm and measurement at 535 nm.

[3] = Fluorescein angiographic analysis of the retina (scanning-laser ophthalmoscopy); assay type: in vivo, C57BL/6 mice; conditions: mice, 50 nmol i.v.
Method: To obtain functional information on the imaging properties of 428-D-Lys-FAM, a fluorescein angiographic analysis of the retina was performed. Fluorescein and 428-D-Lys-FAM were injected i.v. into mice and pictures of the eye fundus taken at different time-points. The fluorescein angiographic pictures confirmed the results of the pharmacokinetic studies.
Scanning-laser opthalmoscopy imaging was performed with a Heidelberg Retina Angiograph (HRA I, Heidelberg Engineering, Germany), a confocal scanning-laser opthalmoscope, according to previously described procedures [see reference 39]. Briefly, wild-type C57BL/6 mice were anaesthetized with ketamine (66.7 mg/kg) and xylazine (11.7 mg./kg), and their pupils were dilated with tropicamide eye drops (Mydriaticum Stulln, Pharma Stulln, Germany). The HRA features two argon wavelengths (488 nm and 514 nm) in the short wavelength range and two infrared diode lasers (795 nm and 830 nm) in the long wavelength range. The laser wavelength of 488 nm was used for fluorescein angiography, with a barrier filter at 500 nm. Four mice each received either 50 nmol of fluorescein or 428-D-Lys-FAM dissolved in 100 μl of 100 mM Tris/HCl, 105 mM NaCl, pH 8.2 injected i.v. into the tail. […] In particular, the brightness value in this study was fixed so that the brightest image (428-D-Lys-FAM at 1 minute following injection) could be recorded without overexposure. […]

[4] = Pharmacokinetic profile of 428-ε-Lys-α-NH-FITC vs. fluorescein in mice (LC/MS/MS of serum); parameters: species or system 129SV mice; conditions: 129SV, mouse, in vivo
Method: The pharmacokinetic properties of conjugates of the invention are evaluated by injection of both said conjugate and the corresponding unconjugated agent (i.e. the agent that has not been modified by a compound of the invention) into mice and subsequent sampling of the conjugate and agent concentrations. Conjugate and agent concentrations are determined by Liquid Chromatography/Mass Spectrometry/Mass Spectrometry (LC-MS/MS) according to techniques known in the art.
100 μl of a 170 μM solution of fluorescein and of 428-ε-Lys-α-NH-FITC were injected into 2 pairs of immunocompetent 129SV mice.

[5] = Pharmacokinetic profiles of fluorescein and FAM derivatives in mouse (LC/MS/MS of plasma); assay type: in vivo, 129SvPas mice; conditions: for half-life: 129SvPas, mouse, in vivo, iv, 20 nmol
Method: In a further in vivo experiment, the pharmacokinetic properties of fluorescein, phenethylamine-FAM, 428-D-Lys-FAM, and 622-D-Lys-FAM were measured and compared. Clearance profiles for the four compounds differed distinctly (FIG. 14).
Pharmacokinetic analyses were performed under the Project Licenses 198/2005 of the Veterinaramt des Kantons Zürich (issued to Dario Neri). 129SvPas mice were injected into the tail vein with 20 nmol of fluorescein, Phenethylamine-FAM, 428-D-Lys-FAM, or 622-D-Lys-FAM dissolved in 100 μl of 100 mM Tris/HCl, 105 mM NaCl, pH 8.2 (2 mice each). 20-30 μl blood samples were taken from the vena saphena with EDTA coated capillaries (Sarstedt) 1, 5, 15, 30, 60, 120, 240, 360, 480 and 1440 minutes after injection and centrifuged. 5-10 μl of plasma were mixed with 40 μl of 0.1% trifluoroacetic acid and 200 μl of ethanol and incubated on ice for 1 hour. After one hour the samples were centrifuged to remove the precipitated proteins. The supernatant was dried under vacuum and subsequently redissolved in 50 μl of DMSO/H2O. 40 μl were injected into an LC/MS/MS system (Micromass Quattro micro API) and run on a linear gradient from in 0.1% HCOOH from 5% to 95% acetonitrile in ten minutes on a Waters XTerra MS C18 column ([…], 1×50 mm) while observing the daughter ions with m/z of 287.1 and 202.1 of the parent ion 333.1 for fluorescein, with m/z of 287.3 and 332.3 of the parent ion 480.2 for Phenethylamine-FAM, with m/z of 287.3, 377.2 and 505.2 of the parent ion 777.1 for 428-D-Lys-FAM, and with m/z of 287.3 and 505.4 of the parent ion 651.3 for 622-D-Lys-FAM. Comparing the area under the curve with a previously obtained dilution series of fluorescein and 428-D-Lys-FAM in plasma with identical sample preparation allowed the quantification of the molecules.

[6] = background, reference 2; cited from earlier work

HSA, sequence (P02768 25-609): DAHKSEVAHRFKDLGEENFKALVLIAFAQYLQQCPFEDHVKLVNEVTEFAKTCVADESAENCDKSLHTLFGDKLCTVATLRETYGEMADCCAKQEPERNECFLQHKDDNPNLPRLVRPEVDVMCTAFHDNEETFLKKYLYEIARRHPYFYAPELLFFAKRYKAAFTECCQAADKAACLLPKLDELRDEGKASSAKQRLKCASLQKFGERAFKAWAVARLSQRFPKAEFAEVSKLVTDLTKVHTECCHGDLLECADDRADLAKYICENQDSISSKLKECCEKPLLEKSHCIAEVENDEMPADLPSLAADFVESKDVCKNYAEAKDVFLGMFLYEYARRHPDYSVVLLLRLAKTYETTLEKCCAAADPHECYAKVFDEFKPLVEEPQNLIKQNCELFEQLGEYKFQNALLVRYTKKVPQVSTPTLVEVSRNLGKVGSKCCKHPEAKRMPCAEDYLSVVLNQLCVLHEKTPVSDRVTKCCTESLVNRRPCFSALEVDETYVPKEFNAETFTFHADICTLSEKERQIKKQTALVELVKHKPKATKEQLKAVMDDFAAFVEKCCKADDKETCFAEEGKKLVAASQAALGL
albumin, sequence (P02768 25-609, species assumed): as the sequence (P02768 25-609) above

Structure (SMILES): O=C([O-])CN(CCN(CC(=O)[O-])CC(=O)O)CCN(CC(=O)[O-])CC(=O)O.[Gd+3] [DTPA-Gd, Gadolinium (III)—diethyltriaminepentaacetic acid]
- extravasation observed by MRI [1]: Rapid extravasation

Structure (SMILES): C=CC1=C(C)/C(=C/c2[nH]c(Cc3[nH]c(/C=C4\NC(=O)C(C)=C4C=C)c(C)c3CCC(=O)O)c(CCC(=O)O)c2C)NC1=O [bilirubin]
- affinity / dissociation constant to albumin (in words) (albumin): nanomolar affinity

Structure (SMILES): O=C1OC2(c3ccc(O)cc3Oc3cc(O)ccc32)c2ccccc21 [fluorescein]
- patients with nausea and vomit [2]: up to 20%
- Kd (HSA): 76 µM
- time after which staining of the blood vessels not detectable [3]: 20 min
- half-life [4]: 12.5 min
- half-life ([5]; t1/2 (monophasic profile)): 4.6 min
- time after injection at which no longer detectable ([5]; mice, 20 nmol into the tail vein, plasma): 30 min

Structure (SMILES): COc1cccc2c1C(=O)c1c(O)c3c(c(O)c1C2=O)C[C@@](O)(/C(CO)=N/NC(=O)CCCCCN1C(=O)C=CC1=O)C[C@@H]3O[C@H]1C[C@H](N)[C@H](O)[C@H](C)O1 [DOXO-EMCH]
- maximum tolerated dose relative to unmodified doxorubicin [6]: 2-10 times

Structure (SMILES): O=C(NCCc1ccccc1)c1ccc2c(c1)C(=O)OC21c2ccc(O)cc2Oc2cc(O)ccc21 [phenethylamine-FAM]
- Kd (HSA): 17 µM
- half-life ([5]; t1/2, α): 5 min
- half-life ([5]; t1/2, β): 53 min

Reference: patent US8344177B2, “Albumin binding molecules and uses thereof” (Philochem AG, priority 2006, dated 2013)
